Source: patent publication US8309718B2, “4-pyrazolyl-N-arylpyrimidin-2-amines and 4-pyrazolyl-N-heteroarylpyrimidin-2-amines as janus kinase inhibitors” (Incyte Corporation, priority 2007, dated 2012)

Biological target: T1, human JAK2 (Homo sapiens, UniProt O60674)
T1 construct: JAK2 (a.a. 828-1132); His tag (N); made in house; host or cells: insect cells (baculovirus)
Assay: In vitro JAK kinase assay (HTRF, phosphorylation of biotinylated peptide)
Assay type: biochemical
Conditions: catalytic domain a.a. 828-1132, 30 μM ATP, 500 nM peptide, room temperature 1 hr; read-out: JAK-2 IC50
Outline: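 His-tagged human JAK2 catalytic domain (a.a. 828-1132), baculovirus/insect-cell expressed; phosphorylation of 500 nM biotinylated peptide at 30 μM ATP in 50 mM Tris pH 7.8, 100 mM NaCl, 5 mM DTT, 0.01% BSA. 1 h at room temperature, EDTA stop, HTRF read (Eu-Py20/SA-APC); IC50.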

T1 sequence (O60674 828-1132): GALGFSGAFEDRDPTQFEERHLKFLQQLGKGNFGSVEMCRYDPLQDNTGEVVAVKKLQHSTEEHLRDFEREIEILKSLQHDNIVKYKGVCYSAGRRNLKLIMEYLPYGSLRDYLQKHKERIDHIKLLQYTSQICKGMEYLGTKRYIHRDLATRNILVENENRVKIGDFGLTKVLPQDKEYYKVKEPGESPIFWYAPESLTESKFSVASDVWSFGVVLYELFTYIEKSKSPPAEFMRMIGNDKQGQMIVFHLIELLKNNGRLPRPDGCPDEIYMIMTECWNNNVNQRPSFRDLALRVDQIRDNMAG

IC50, < 100 nM:
COc1cnc(Nc2ccc(N3CCOCC3)cc2)nc1-c1cnn(C(CC#N)C2CCCC2)c1 (racemic) [Example 101, 3-cyclopentyl-3-(4-(5-methoxy-2-(4-morpholinophenylamino)pyrimidin-4-yl)-1H-pyrazol-1-yl)propanenitrile]
N#CCC(C1CCOCC1)n1cc(-c2ccnc(Nc3ccc(C(=O)N4CCCC4)cc3)n2)cn1 (racemic) [Example 310, 3-[4-(2-{[4-(pyrrolidin-1-ylcarbonyl)phenyl]amino}pyrimidin-4-yl)-1H-pyrazol-1-yl]-3-(tetrahydro-2H-pyran-4-yl)propanenitrile]
Cc1cnc(Nc2ccc(NC(=O)CN3CCCC3)cc2)nc1-c1cnn(C(CC#N)C2CCCC2)c1 (racemic) [Example 91, N-(4-(4-(1-(2-cyano-1-cyclopentylethyl)-1H-pyrazol-4-yl)-5-methylpyrimidin-2-ylamino)phenyl)-2-(pyrrolidin-1-yl)acetamide]
N#CCC(CC1CCN(C(=O)c2ccc(F)cc2F)CC1)n1cc(-c2ccnc(Nc3ccc(N4CCNCC4)cc3)n2)cn1 (racemic) [Example 2, 4-(1-(2,4-difluorobenzoyl)piperidin-4-yl)-3-(4-(2-(4-(piperazin-1-yl)phenylamino)pyrimidin-4-yl)-1H-pyrazol-1-yl)butanenitrile]
Cc1cnc(Nc2ccc(C(=O)N(C)C)cc2)nc1-c1cnn(C(CC#N)CC2CCN(C(=O)c3ccc(F)cc3F)CC2)c1 (racemic) [Example 68, 4-(4-(1-(1-cyano-3-(1-(2,4-difluorobenzoyl)piperidin-4-yl)propan-2-yl)-1H-pyrazol-4-yl)-5-methylpyrimidin-2-ylamino)-N,N-dimethylbenzamide]
Cn1ccc(S(=O)(=O)N2CCC(CC(CC#N)n3cc(-c4ccnc(Nc5ccccc5)n4)cn3)CC2)n1 (racemic) [Example 57, 4-(1-(1-methyl-1H-pyrazol-3-ylsulfonyl)piperidin-4-yl)-3-(4-(2-(phenylamino)pyrimidin-4-yl)-1H-pyrazol-1-yl)butanenitrile]
N#CCC(C1CCCC1)n1cc(-c2ccnc(Nc3ccc(NC(=O)CNCC4CC4)cc3)n2)cn1 (racemic) [Example 210, N-(4-(4-(1-(2-cyano-1-cyclopentylethyl)-1H-pyrazol-4-yl)pyrimidin-2-ylamino)phenyl)-2-(cyclopropylmethylamino)acetamide]
N#CCC(C1CCCC1)n1cc(-c2ccnc(Nc3ccc(C(=O)N4CCC(O)CC4)cc3)n2)cn1 (racemic) [Example 124, 3-cyclopentyl-3-(4-(2-(4-(4-hydroxypiperidine-1-carbonyl)phenylamino)pyrimidin-4-yl)-1H-pyrazol-1-yl)propanenitrile]
N#CCC(C1CCCC1)n1cc(-c2ccnc(Nc3cccc(C(=O)N4CCC(O)(c5ccccc5)CC4)c3)n2)cn1 (racemic) [Example 150, 3-cyclopentyl-3-(4-(2-(3-(4-hydroxy-4-phenylpiperidine-1-carbonyl)phenylamino)pyrimidin-4-yl)-1H-pyrazol-1-yl)propanenitrile]
N#CCC(C1CCCC1)n1cc(-c2ccnc(Nc3ccc(NS(=O)(=O)c4ccc(-c5ccccn5)s4)cc3)n2)cn1 (racemic) [Example 195, N-(4-(4-(1-(2-cyano-1-cyclopentylethyl)-1H-pyrazol-4-yl)pyrimidin-2-ylamino)phenyl)-5-(pyridin-2-yl)thiophene-2-sulfonamide]
CO[C@H]1CCN(C(=O)c2ccc(Nc3nccc(-c4cnn(C(CC#N)C5CCCC5)c4)n3)cc2)C1 (mixture of isomers) [Example 226, 3-cyclopentyl-3-(4-(2-(4-((S)-3-methoxypyrrolidine-1-carbonyl)phenylamino)pyrimidin-4-yl)-1H-pyrazol-1-yl)propanenitrile]
Cc1cc(OC2CCC(CC#N)(n3cc(-c4ccnc(Nc5ccc(N6CCOCC6=O)cc5)n4)cn3)CC2)no1 (single isomer, unassigned) [Example 244, 2-(4-(5-methylisoxazol-3-yloxy)-1-(4-(2-(4-(3-oxomorpholino)phenylamino)pyrimidin-4-yl)-1H-pyrazol-1-yl)cyclohexyl)acetonitrile]
CN(C)S(=O)(=O)Nc1ccc(Nc2nccc(-c3cnn(C(CC#N)C4CCCC4)c3)n2)cc1 (racemic) [Example 186, NA-(4-(4-(1-(2-cyano-1-cyclopentylethyl)-1H-pyrazol-4-yl)pyrimidin-2-ylamino)phenyl)-N,N-dimethylsulfamide]
CCS(=O)(=O)N1CC(CC#N)(n2cc(-c3ccnc(Nc4ccc(C(=O)N5CC[C@@H](NC(C)=O)C5)cc4)n3)cn2)C1 [Example 280, (R)—N-(1-(4-(4-(1-(3-(cyanomethyl)-1-(ethylsulfonyl)azetidin-3-yl)-1H-pyrazol-4-yl)pyrimidin-2-ylamino)benzoyl)pyrrolidin-3-yl)acetamide]
COc1cnc(Nc2cccc([N+](=O)[O-])c2)nc1-c1cnn(C(CC#N)C2CC2)c1 (racemic) [Example 321, 3-cyclopropyl-3-(4-{5-methoxy-2-[(3-nitrophenyl)amino]pyrimidin-4-yl}-1H-pyrazol-1-yl)propanenitrile]
CN(C)C(=O)c1cccc(Nc2nccc(-c3cnn(C(CC#N)C4CCCC4)c3)n2)c1 (racemic) [Example 110, 3-(4-(1-(2-cyano-1-cyclopentylethyl)-1H-pyrazol-4-yl)pyrimidin-2-ylamino)-N,N-dimethylbenzamide]
CCCN(CC1CC1)C(=O)c1ccc(Nc2nccc(-c3cnn(C(CC#N)C4CCCC4)c3)n2)cc1 (racemic) [Example 125, 4-(4-(1-(2-cyano-1-cyclopentylethyl)-1H-pyrazol-4-yl)pyrimidin-2-ylamino)-N-(cyclopropylmethyl)-N-propylbenzamide]
N#CCC(C1CCOCC1)n1cc(-c2ccnc(Nc3ccc(C(=O)N4CCOCC4)cc3)n2)cn1 (racemic) [Example 311, 3-[4-(2-{[4-(morpholin-4-ylcarbonyl)phenyl]amino}pyrimidin-4-yl)-1H-pyrazol-1-yl]-3-(tetrahydro-2H-pyran-4-yl)propanenitrile]
N#CCC(CC1CCN(C(=O)c2ccc(F)cc2F)CC1)n1cc(-c2ccnc(Nc3ccc(-n4cccn4)cc3)n2)cn1 (racemic) [Example 6, 3-(4-(2-(4-(1H-pyrazol-1-yl)phenylamino)pyrimidin-4-yl)-1H-pyrazol-1-yl)-4-(1-(2,4-difluorobenzoyl)piperidin-4-yl)butanenitrile]
CN1CCN(C(=O)c2cccc(Nc3nccc(-c4cnn(C(CC#N)C5CCCC5)c4)n3)c2)CC1 (racemic) [Example 137, 3-cyclopentyl-3-(4-(2-(3-(4-methylpiperazine-1-carbonyl)phenylamino)pyrimidin-4-yl)-1H-pyrazol-1-yl)propanenitrile]
Cc1cc(C(=O)Nc2ccc(Nc3nccc(-c4cnn(C(CC#N)C5CCCC5)c4)n3)cc2)no1 (racemic) [Example 187, N-(4-(4-(1-(2-cyano-1-cyclopentylethyl)-1H-pyrazol-4-yl)pyrimidin-2-ylamino)phenyl)-5-methylisoxazole-3-carboxamide]
COC1CCN(C(=O)c2ccc(Nc3nccc(-c4cnn(C5(CC#N)CC(C#N)C5)c4)n3)cc2)CC1 (single isomer, unassigned) [Example 295, 3-(cyanomethyl)-3-(4-(2-(4-(4-methoxypiperidine-1-carbonyl)phenylamino)pyrimidin-4-yl)-1H-pyrazol-1-yl)cyclobutanecarbonitrile]
COc1cnc(Nc2ccc(C(=O)N3CCCC3)cc2)nc1-c1cnn(C(CC#N)C2CCCC2)c1 (racemic) [Example 303, 3-cyclopentyl-3-(4-(5-methoxy-2-(4-(pyrrolidine-1-carbonyl)phenylamino)pyrimidin-4-yl)-1H-pyrazol-1-yl)propanenitrile]
COC1CCN(C(=O)c2ccc(Nc3nccc(-c4cnn(C(CC#N)C5CCOCC5)c4)n3)cc2)CC1 (racemic) [Example 313, 3-{4-[2-({4-[(4-methoxypiperidin-1-yl)carbonyl]phenyl}amino)pyrimidin-4-yl]-1H-pyrazol-1-yl}-3-(tetrahydro-2H-pyran-4-yl)propanenitrile]
COc1cnc(Nc2cccc(C(=O)N3[C@@H]4CC[C@H]3C[C@@H](O)C4)c2)nc1-c1cnn(C(CC#N)C2CC2)c1 (mixture of isomers) [Example 332, 3-cyclopropyl-3-(4-{2-[(3-{[(3-endo)-3-hydroxy-8-azabicyclo[3.2.1]oct-8-yl]carbonyl}phenyl)amino]-5-methoxypyrimidin-4-yl}-1H-pyrazol-1-yl)propanenitrile]
N#CCC(C1CCCC1)n1cc(-c2ccnc(Nc3cccc(-c4cnco4)c3)n2)cn1 (racemic) [Example 37, 3-cyclopentyl-3-(4-(2-(3-(oxazol-5-yl)phenylamino)pyrimidin-4-yl)-1H-pyrazol-1-yl)propanenitrile]
CS(=O)(=O)N1CCC(CC(CC#N)n2cc(-c3ccnc(Nc4ccc(N5CCOCC5=O)cc4)n3)cn2)CC1 (racemic) [Example 95, 4-(1-(methylsulfonyl)piperidin-4-yl)-3-(4-(2-(4-(3-oxomorpholino)phenylamino)pyrimidin-4-yl)-1H-pyrazol-1-yl)butanenitrile]
COC[C@H]1CCCN1CC(=O)Nc1ccc(Nc2nccc(-c3cnn(C(CC#N)C4CCCC4)c3)n2)cc1 (mixture of isomers) [Example 209, N-(4-(4-(1-(2-cyano-1-cyclopentylethyl)-1H-pyrazol-4-yl)pyrimidin-2-ylamino)phenyl)-2-((R)-2-(methoxymethyl)pyrrolidin-1-yl)acetamide]
